Data taken from patent US10201558B2, “Compositions of selenoorganic compounds and methods of use thereof” (Alltech, Inc., priority 2014, dated 2019).

Key:
[1] = test system: Aβ plaque deposits (Aβ1-42); experiment: IHC analysis of amyloid deposits in the brains of APP/PS1 mice; format: in vivo, mouse; conditions: diet with 1 ppm Se from Compound C, 6 to 12 months of age
Experimental: Male APPΔNLh/ΔNLh×PS1P246 L/246 L knock-in model mice of Alzheimer's disease (abbreviated APP/PS1) were genotyped using standard primers for human APP (Amyloid Precursor Protein) and human PS1 (PSEN1). These APP/PS1 mice starting at the age of 6 months, were fed either a control diet containing normal levels of selenium (0.3 ppm from plant and inorganic selenium salt sources) or an experimental diet containing Compound C (the control diet to which was added 1 ppm Se from Compound C) for 6 months.
At 12 months of age, the mice were euthanized and the brains quickly removed, the cerebellum isolated and the hemispheres snap-frozen in liquid nitrogen and then stored at −80° C. for further immunohistochemistry (IHC), protein and RNA analysis. All procedures conducted on these animal studies were pre-approved by the University of Kentucky IACUC committee.
Frozen brain tissues were sectioned using a Leica-CM1900 cryostat (Leica Microsystems Inc., Bannockburn, Ill.), as described previously (Zhang et al, 2008. Biochem Biophys Res Commun). These frozen brain sections were subjected to immunohistochemistry staining of Aβ plaques using a specific polyclonal antibody against Aβ1-42 (Abcam) and the Rabbit ImmunoCruz Staining System (Santa Cruz Biotechnology, Santa Cruz, Calif.) according to the manufacturer's protocol. […]

[2] = test system: phosphorylated FOXO3 in AML-12 cells; experiment: Phosphorylated FOXO in AML-12 liver cells; format: cell-based, mouse; conditions: 150 ppb, 6 hours and 24 hours
Experimental: Expression of phosphorylated FOXO1/3/4 in a non-neuronal mouse AML-12 liver cell line was examined Tests were performed at the same time and under the same experimental conditions as the human IMR-32 cells.

[3] = test system: NOTCH signaling molecules in IMR-32 cells; experiment: QRT-PCR of key NOTCH signaling molecules in IMR-32 cells; format: cell-based, human; conditions: 150 ppb; for HER2 mRNA expression (mean ± sem) / HES1 mRNA expression (mean ± sem) / HEY1 mRNA expression (mean ± sem) / NFKB1 mRNA expression (mean ± sem) / NFKB2 mRNA expression (mean ± sem) / NOTCH 1 mRNA expression (mean ± sem) / NOTCH 2 mRNA expression (mean ± sem) / NOTCH 3 mRNA expression (mean ± sem) / RBPJ mRNA expression (mean ± sem): control 100
Experimental: QRT-PCR analysis of several Notch signaling molecules was performed in IMR-32 cells to test if Compound C is toxic to the Notch signaling in vitro. In brief, IMR-32 cells were treated with a water control and 150 ppb Compound C in 10% FBS containing MEM media for 6 hours, 24 hours, and 48 hours. These molecules were selected based on the IPA GO search.

[4] = test system: control KD and FOXO4KD IMR-32 cells; experiment: Mitochondrial potential in control KD and FOXO4 knockdown IMR-32 cells; format: cell-based, human; conditions: 75 ppb and 150 ppb, 6 hours
Experimental: IMR-32 cells were cultured on 12-well plates for 24 hours and then incubated with FOXO4 siRNA lentiviruses (SC-29650V, Santa Cruz) or control siRNA lentiviruses (sc-108080, Santa Cruz) in the presence of Polybrene (5 μg/ml, Santa Cruz) for 24 hours according to the manufacturer's protocol. These lentiviral siRNA-transfected cells were amplified in normal media for 3 days and then incubated with puromycin for 9-14 days to obtain the stable Control KD (stably transfected with the control siRNAs) and FOXO4KD (stably transfected with Foxo4 siRNAs) cells. These control and Foxo4 KD cells were subjected to cell survival, mitochondrial potential and RNA analysis.
The mitochondrial potential per cell in control lentiviral KD IMR-32 or IMR-32 FOXO4 knockdown (KD) cells was determined using the Bio-TeK Synergy HT Multi-Mode fluorescence microplate reader with the following modifications. To improve the attachment of IMR-32 cells to culture dishes, cell culture plates were precoated with 0.1% gelatin (Sigma, St. Louis, Mo.).
To reduce cell dislodgment, Mitotracker Orange and Hoechst 33342 fluorescent dyes (diluted in culture media) were directly added to each well after control or compound treatments were added. After dye incubation, cell culture media was carefully replaced with 1×PBS buffer for the quantitation analysis of fluorescence on the microplate reader. Eight samples per each treatment were examined for the above analysis, and the experiments were repeated at least five times. Data are presented as mean±sem of eight samples.
To exclude the possibility that unknown factors in sera may affect the action of Compound C in cultured IMR-32 cells, cells were cultured in serum-free media for 24 hours, treated with Compound C (diluted in serum-free media) for 6 hours, and then subjected to MT analysis. Data were normalized by the fluorescence intensities of stained cell nuclei. Mean±SEM, n=8. The * refers to a p value <0.05 when compared to the control lentiviral KD cells group (0 ppb).

`C[Se]C[C@H]1O[C@@H](n2cnc3c(N)ncnc32)C(O)C1O` (stereo in doubt) [Compound C, 5′-deoxy-5′-methylselenoadenosine] was tested, and the “Aβ plaque deposits in the brain cortex (IHC, Aβ1-42 staining)” value [1] was “much fewer and/or weaker-staining”, the “Aβ plaque deposits in the brain hippocampus (IHC, Aβ1-42 staining)” value [1] was “much fewer and/or weaker-staining” and the “phosphorylation of FOXO3” value [2] was “did not affect”. The “NOTCH 4 mRNA expression” value ([3]; 6 hours treatment (cell spans control and #C)) was “Undetected”, the “HER2 mRNA expression (mean ± sem)” value ([3]; 6 hours treatment) was 96 ± 4 (4) and the “HES1 mRNA expression (mean ± sem)” value ([3]; 6 hours treatment) was 101 ± 6 (4). For the same molecule, the “HEY1 mRNA expression (mean ± sem)” value ([3]; 6 hours treatment) was 120 ± 9 (4), the “NFKB1 mRNA expression (mean ± sem)” value ([3]; 6 hours treatment) was 112 ± 7 (4) and the “NFKB2 mRNA expression (mean ± sem)” value ([3]; 6 hours treatment) was 103 ± 7 (4). The “NOTCH 1 mRNA expression (mean ± sem)” value ([3]; 6 hours treatment) was 94 ± 7 (4), the “NOTCH 2 mRNA expression (mean ± sem)” value ([3]; 6 hours treatment) was 95 ± 16 (4) and the “NOTCH 3 mRNA expression (mean ± sem)” value ([3]; 6 hours treatment) was 95 ± 7 (4). The “RBPJ mRNA expression (mean ± sem)” value ([3]; 6 hours treatment) was “trend of increased expression”, the “RBPJ mRNA expression (mean ± sem)” value ([3]; 6 hours treatment, listed as #C) was 144 ± 12 (4) and the “expression of all tested Notch signaling genes” value ([3]; 6 hours, 24 hours and 48 hours) was “did not significantly inhibit”. The “NOTCH 4 mRNA expression” value ([3]; 24 hours treatment (cell spans control and #C)) was “Undetected”, the “HER2 mRNA expression (mean ± sem)” value ([3]; 24 hours treatment) was 100 ± 11 and the “HES1 mRNA expression (mean ± sem)” value ([3]; 24 hours treatment) was 102 ± 18. The “HEY1 mRNA expression (mean ± sem)” value ([3]; 24 hours treatment) was 121 ± 10, the “NFKB1 mRNA expression (mean ± sem)” value ([3]; 24 hours treatment) was 106 ± 11 and the “NFKB2 mRNA expression (mean ± sem)” value ([3]; 24 hours treatment) was 85 ± 28 (3). The “NOTCH 1 mRNA expression (mean ± sem)” value ([3]; 24 hours treatment) was 89 ± 10 (3), the “NOTCH 2 mRNA expression (mean ± sem)” value ([3]; 24 hours treatment) was 103 ± 27 and the “NOTCH 3 mRNA expression (mean ± sem)” value ([3]; 24 hours treatment) was 105 ± 14. The “RBPJ mRNA expression (mean ± sem)” value ([3]; 24 hours treatment) was 119 ± 37, the “HER2 mRNA expression (mean ± sem)” value ([3]; 48 hours treatment) was 106 ± 23 and the “HES1 mRNA expression (mean ± sem)” value ([3]; 48 hours treatment) was 115 ± 9 (4). The “HEY1 mRNA expression (mean ± sem)” value ([3]; 48 hours treatment) was 115 ± 11, the “NFKB1 mRNA expression (mean ± sem)” value ([3]; 48 hours treatment) was 109 ± 12 and the “NFKB2 mRNA expression (mean ± sem)” value ([3]; 48 hours treatment) was 97 ± 14 (4). The “NOTCH 1 mRNA expression (mean ± sem)” value ([3]; 48 hours treatment) was 90 ± 9 (3), the “NOTCH 2 mRNA expression (mean ± sem)” value ([3]; 48 hours treatment) was 94 ± 40 (3) and the “NOTCH 3 mRNA expression (mean ± sem)” value ([3]; 48 hours treatment) was 81 ± 23 (4). For the same molecule, the “RBPJ mRNA expression (mean ± sem)” value ([3]; 48 hours treatment) was 97 ± 7 (4), the MT potential ([4]; FOXO4KD cells, serum-containing media) was “no significant effect” and the MT potential ([4]; FOXO4KD cells, serum-free media) was “no significant increase”. The MT potential ([4]; normal control KD cells, serum-containing media) was “significantly enhanced” and the MT potential ([4]; normal control KD cells, serum-free media) was “significantly stimulated”.
